Measured values: ChEMBL document CHEMBL1144300, “Tellurium-based cysteine protease inhibitors: evaluation of novel organotellurium(IV) compounds as inhibitors of human cathepsin B” (Bioorg Med Chem Lett, 2005)

The compounds below were run against Cathepsin B (Homo sapiens) (UniProt P07858) (assay: Second-order rate constant for inactivation of human cathepsin B).
`OC(C/C(=C\Cl)[Te](Cl)(Cl)Cl)c1ccccc1` (centres undefined) gave a K2 of 12000 M⁻¹ s⁻¹.
Work on `COc1ccc([Te]2(Cl)OC3(CCCCCC3)/C2=C\Cl)cc1` (centres undefined) yielded a K2 of 1600 M⁻¹ s⁻¹.
In the case of `COc1ccc([Te](Cl)(Cl)/C(=C/Cl)C(C)(C)O)cc1`, the K2 is reported as 11000 M⁻¹ s⁻¹.
Work on `CC[N+](CC)(CC)Cc1ccccc1.ClC1=C[Te](Cl)(Cl)OC1` yielded a K2 of 6000 M⁻¹ s⁻¹.
In the case of `COc1ccc([Te](Cl)(Cl)/C=C(\Cl)c2ccccc2)cc1`, the K2 is reported as 7900 M⁻¹ s⁻¹.
In the case of `COc1ccccc1C(=O)/C=C(/c1ccccc1OC)[Te](Cl)(Cl)Cl`, the K2 is reported as 15000 M⁻¹ s⁻¹.
Work on `COc1ccc([Te]2(Cl)OC3(CCCCC3)/C2=C\Cl)cc1` (centres undefined) yielded a K2 of 36000 M⁻¹ s⁻¹.
For `COc1ccc([Te]2(Cl)OC3(CCCCC3)/C2=C\Br)cc1` (centres undefined), the K2 was 7700 M⁻¹ s⁻¹.
`Cl[Te]1(Cl)OCCO1` showed a K2 of 0.037 M⁻¹ s⁻¹.
